Calls of active or inactive are those of the source. The calls are words filed in the database; no cut-off is given here.
What was measured:
[1] = tested on: HCT-116; assay: Antiproliferative activity against human HCT-116 cells assessed as inhibition of cell growth measured after 48 hrs by CCK8 method; format: functional, cell-based; details: HCT-116, 48 h
[2] = target: Tubulin (Homo sapiens) (UniProt P68371+Q9H4B7+P0DPH7+P68366+Q13509+Q71U36+P04350+Q3ZCM7+P07437+P68363+Q9BQE3+Q6PEY2+Q13885+Q9BVA1+Q9BUF5); assay: Inhibition of tubulin polymerization in human KYSE-30 cells assessed as appearance of multinucleation at 20 to 40 nM incubated for 6 hrs by immunofluorescence staining based fluorescence microscopic analysis; format: cell-based; details: dose 20-40 nM
[3] = tested on: ECa-109 cell line; assay: Antiproliferative activity against human EC109 cells assessed as reduction in cell viability at 70 nM measured after 48 hrs by CCK-8 method relative to control; format: functional
[4] = tested on: KYSE-30; assay: Antiproliferative activity against human KYSE-30 cells assessed as reduction in cell viability by CCK-8 method; format: functional, cell-based; details: time 12-48 hrs, TDE = time-dependent effect
[5] = tested on: ECa-109 cell line; assay: Inhibition of colony formation in human EC109 cells at 20 to 40 nM incubated for 7 days by crystal violet staining based analysis; format: functional, cell-based; details: dose 20-40 nM, time 7.0 day
[6] = tested on: ECa-109 cell line; assay: Induction of cell cycle arrest in human EC109 cells assessed as accumulation of cells at G2/M phase at 0 to 40 nM measured after 48 hrs by propidium iodide staining based flow cytometry analysis (reference value: 14.57%); format: functional; details: dose 0-40 nM
[7] = tested on: ECa-109 cell line; assay: Induction of cell cycle arrest in human EC109 cells assessed as downregulation of CDC25C level at 40 to 60 nM measured after 48 hrs by Western blot analysis; format: functional, cell-based; details: dose 40-60 nM
[8] = tested on: ECa-109 cell line; assay: Induction of cell cycle arrest in human EC109 cells assessed as downregulation of CDK1 level at 40 to 60 nM measured after 48 hrs by Western blot analysis; format: functional, cell-based; details: dose 40-60 nM
[9] = tested on: KYSE-30; assay: Induction of cell cycle arrest in human KYSE-30 cells assessed as downregulation of CDC25C level at 40 to 60 nM measured after 48 hrs by Western blot analysis; format: functional, cell-based; details: dose 40-60 nM
[10] = tested on: KYSE-30; assay: Induction of cell cycle arrest in human KYSE-30 cells assessed as upregulation of histone H3phosphorylation level at 40 to 60 nM measured after 48 hrs by Western blot analysis; format: functional, cell-based; details: dose 40-60 nM
[11] = tested on: KYSE-30; assay: Induction of apoptosis in human KYSE-30 cells assessed as increase in caspase 3 activity at 40 to 100 nM measured after 48 hrs by Western blot analysis; format: functional, cell-based; details: dose 40-100 nM
[12] = tested on: KYSE-30; assay: Induction of apoptosis in human KYSE-30 cells assessed as decrease in pro-caspase 3 level at 40 to 100 nM measured after 48 hrs by Western blot analysis; format: functional, cell-based; details: dose 40-100 nM
[13] = tested on: ECa-109 cell line; assay: Induction of apoptosis in human EC109 cells assessed as increase in cleaved caspase 3 level at 40 to 100 nM measured after 48 hrs by Western blot analysis; format: functional, cell-based; details: dose 40-100 nM
[14] = tested on: Cell membrane; assay: Induction of mitochondrial membrane depolarization in human EC109 cells assessed as increase in caspase 9 activity at 40 to 60 nM incubated for 24 hrs by flow cytometry analysis; format: cell membranes; details: dose 40-60 nM
[15] = tested on: ECa-109 cell line; assay: Induction of apoptosis in human EC109 cells assessed as effect on bax level at 40 to 60 nM by flow cytometry analysis; format: functional, cell-based; details: dose 40-60 nM
[16] = tested on: ECa-109 cell line; assay: Induction of apoptosis in human EC109 cells assessed as effect on bak level at 40 to 60 nM by flow cytometry analysis; format: functional, cell-based; details: dose 40-60 nM
[17] = tested on: ECa-109 cell line; assay: Induction of apoptosis in human EC109 cells assessed as effect on Bcl-xl level at 40 to 60 nM by flow cytometry analysis; format: functional, cell-based; details: dose 40-60 nM
[18] = tested on: ECa-109 cell line; assay: Induction of apoptosis in human EC109 cells assessed as effect on Mcl-1 level at 40 to 60 nM by flow cytometry analysis; format: functional, cell-based; details: dose 40-60 nM
[19] = tested on: ECa-109 cell line; assay: Induction of apoptosis in human EC109 cells assessed as downregulation of XIAP level at 40 to 60 nM by flow cytometry analysis; format: functional, cell-based; details: dose 40-60 nM
[20] = tested on: ECa-109 cell line; assay: Induction of apoptosis in human EC109 cells assessed as increase in Noxa expression level at 40 to 60 nM by flow cytometry analysis; format: functional, cell-based; details: dose 40-60 nM
[21] = tested on: KYSE-30; assay: Induction of apoptosis in human KYSE-30 cells assessed as effect on bax level at 40 to 60 nM by flow cytometry analysis; format: functional, cell-based; details: dose 40-60 nM
[22] = tested on: KYSE-30; assay: Induction of apoptosis in human KYSE-30 cells assessed as downregulation of Bcl-2 level at 40 to 60 nM by flow cytometry analysis; format: functional, cell-based; details: dose 40-60 nM
[23] = tested on: KYSE-30; assay: Induction of apoptosis in human KYSE-30 cells assessed as increase in Noxa expression level at 40 to 60 nM by flow cytometry analysis; format: functional, cell-based; details: dose 40-60 nM
[24] = tested on: ECa-109; assay: Downregulation of YAP level in human EC109 cells incubated for 48 hrs; format: functional, cell-based; details: dose 40-80 nM

In the case of `COc1ccc(CN(C(=O)Cn2cc(CSc3nc4ccccc4s3)nn2)c2cc(OC)c(OC)c(OC)c2)cc1O`, the IC50 [1] is reported as 62 nM, the inhibition [2] is reported as “Active” and the Activity [3] is reported as over 90%. The Activity [4] was “Tde”, the inhibition [5] was “Active” and the Activity [6] was 55.65%. For the same compound, the Activity [7] was “Active”, the Activity [8] was “Active” and the Activity [9] was “Active”. The Activity [10] was “Active”, the Activity [11] was “Active” and the Activity [12] was “Active”. The Activity [13] was “Active”, the Activity [14] was “Active” and the Activity [15] was “inactive”. For the same compound, the Activity [16] was “inactive”, the Activity [17] was “inactive” and the Activity [18] was “inactive”. The Activity [19] was “Active”, the Activity [20] was “Active” and the Activity [21] was “inactive”. The Activity [22] was “Active”, the Activity [23] was “Active” and the Activity [24] was “Dose-Dependent Effect”.

— ChEMBL document CHEMBL5518189, “Design, synthesis and biological evaluation of 1,2,3-triazole benzothiazole derivatives as tubulin polymerization inhibitors with potent anti-esophageal cancer activities” (Eur J Med Chem, 2024)
